In brackets after ≈: the same amount, converted by molar mass. Activity calls are given as the source filed them. No cut-off for these calls is given here.
Columns and labels:
[1] = system: Staphylococcus aureus; experiment: Ratio MBC to MIC against Staphylococcus aureus ATCC 6538P measured after 24 hrs; format: functional
[2] = system: Staphylococcus aureus; experiment: Antibacterial activity against methicillin resistant Staphylococcus aureus ATCC 33591 incubated for 24 hrs by broth dilution method; format: functional
[3] = Hemolytic activity in rabbit RBC assessed as hemolysis rate at 10 times MIC incubated for 3 hrs by ultraviolet spectrophotometry analysis relative to control; format: toxicity, cell-based, Oryctolagus cuniculus, Erythrocyte; conditions: rabbit red blood cells (erythrocytes), read-out: Activity
[4] = system: Escherichia coli; experiment: Antibacterial activity against Escherichia coli ATCC 8739 incubated for 24 hrs by broth microdilution method; format: functional
[5] = system: Staphylococcus aureus; experiment: Antibacterial activity against Staphylococcus aureus ATCC 6538P incubated for 24 hrs by broth microdilution method; format: functional
[6] = system: Escherichia coli; experiment: Ratio of MBC to MIC against Escherichia coli ATCC 8739 measured after 24 hrs; format: functional
[7] = system: Staphylococcus aureus; experiment: Ratio MBC to MIC methicillin resistant Staphylococcus aureus ATCC 33591 measured after 24 hrs; format: functional
[8] = system: Staphylococcus aureus; experiment: Potency index, ratio of norfloxacin MIC to test compound MIC for antibacterial activity against methicillin resistant Staphylococcus aureus ATCC 33591 incubated for 24 hrs by broth dilution method; format: functional
[9] = system: Staphylococcus aureus; experiment: Bactericidal activity against methicillin resistant Staphylococcus aureus ATCC 33591 at 1 to 4 times MIC incubated for 24 hrs by time kill assay; format: functional, organism-based
[10] = system: Staphylococcus aureus; experiment: Induction of resistance development in methicillin resistant Staphylococcus aureus ATCC 33591 assessed as fold increase in MIC incubated for 24 hrs and measured at 10th generation relative to first generation; format: functional
[11] = system: Staphylococcus aureus; experiment: Anti-biofilm activity against methicillin resistant Staphylococcus aureus ATCC 33591 assessed as biofilm eradication incubated for 24 hrs by crystal violet staining based assay; format: functional, organism-based
[12] = system: Staphylococcus aureus; experiment: Bactericidal activity against methicillin resistant Staphylococcus aureus ATCC 33591 at 2 to 4 times MIC measured after 2 hrs by time kill assay; format: functional
[13] = Hemolytic activity in rabbit RBC assessed as hemolysis rate at 4 times MIC incubated for 3 hrs by ultraviolet spectrophotometry analysis relative to control; format: toxicity, cell-based, Oryctolagus cuniculus, Erythrocyte; conditions: rabbit red blood cells (erythrocytes), read-out: Activity
[14] = (§1) Inhibition of Escherichia coli ATCC 8739 UPPS using farnesyl pyrophosphate and isopentenyl pyrophosphate as a substrates preincubated for 30 min followed by EcPPA addition and measured after 30 min by malachite green dye based absorbance analysis
[15] = system: Escherichia coli; experiment: as §1; conditions: time 60.0 min
[16] = system: Escherichia coli; experiment: Noncompetitive inhibition of Escherichia coli ATCC 8739 UPPS using varying concentrations of farnesyl pyrophosphate as substrate assessed as decrease in Vmax with constant Km at 0 to 64 microg/mL incubated for 30 mins by Lineweaver-Burk plot analysis; conditions: dose 0-64 µg/ml
[17] = system: Staphylococcus aureus; experiment: Bactericidal activity against methicillin resistant Staphylococcus aureus ATCC 33591 at 1 times MIC measured after 4 hrs by time kill assay; format: functional
[18] = system: Staphylococcus aureus; experiment: Anti-biofilm activity against methicillin resistant Staphylococcus aureus ATCC 33591 assessed as biofilm eradication at MIC incubated for 24 hrs by crystal violet staining based assay relative to control; format: functional
[19] = Hemolytic activity in rabbit RBC assessed as hemolysis rate at 6 times MIC incubated for 3 hrs by ultraviolet spectrophotometry analysis relative to control; format: toxicity, cell-based, Oryctolagus cuniculus, Erythrocyte; conditions: rabbit red blood cells (erythrocytes), read-out: Activity
[20] = system: Staphylococcus aureus; experiment: Inhibition of biofilm formation in methicillin resistant Staphylococcus aureus ATCC 33591 at 0.25 times MIC incubated for 24 hrs by crystal violet staining based assay relative to control; format: functional
[21] = Hemolytic activity in rabbit RBC assessed as hemolysis rate at 8 times MIC incubated for 3 hrs by ultraviolet spectrophotometry analysis relative to control; format: toxicity, cell-based, Oryctolagus cuniculus, Erythrocyte; conditions: rabbit red blood cells (erythrocytes), read-out: Activity
[22] = Hemolytic activity in rabbit RBC assessed as hemolysis rate at 2 times MIC incubated for 3 hrs by ultraviolet spectrophotometry analysis relative to control; format: toxicity, cell-based, Oryctolagus cuniculus, Erythrocyte; conditions: rabbit red blood cells (erythrocytes), read-out: Activity
[23] = system: Staphylococcus aureus; experiment: Inhibition of biofilm formation in methicillin resistant Staphylococcus aureus ATCC 33591 at 0.5 times MIC incubated for 24 hrs by crystal violet staining based assay relative to control; format: functional

Structure (SMILES) | Ratio [1] | MIC [2] [mg/L] | hemolysis at 3 h, 10 x MIC [3] [%] | MIC [4] [mg/L] | MIC [5] [mg/L] | Ratio [6] | Ratio [7] | Ratio [8] | also measured
C/C(=N\NC(=N)N)c1sc(N/N=C/c2ccccc2O)nc1C | 1 | 64 (≈ 193 µM) | < 5 | 64 (≈ 193 µM) | 32 (≈ 96.6 µM) | 1 |  |  | 
C/C(=N\NC(=N)N)c1sc(N/N=C/c2ccc(-n3cncn3)cc2)nc1C |  | > 128 | < 5 | > 128 | > 128 |  |  |  | 
C/C(=N\NC(=N)N)c1sc(N/N=C/c2cncs2)nc1C | >2 | 64 (≈ 198 µM) | < 5 | 64 (≈ 198 µM) | 64 (≈ 198 µM) | 2 | 2 |  | 
C/C(=N\NC(=N)N)c1sc(N/N=C/c2ccccc2F)nc1C | 1 | 8 (≈ 24 µM) | < 5 | 16 (≈ 48 µM) | 16 (≈ 48 µM) | 1 |  | 8 | 
CCn1cc(C(=O)O)c(=O)c2cc(F)c(N3CCNCC3)cc21 [NORFLOXACIN] | 1 | 64 (≈ 200 µM) |  | 0.12 (≈ 0.376 µM) | 0.25 (≈ 0.783 µM) | >8 | >2 |  | Activity [9]: inactive; fold change (FC) [10]: 4
C/C(=N\NC(=N)N)c1sc(N/N=C/C=C/c2c(F)cccc2F)nc1C | 1 | 32 (≈ 84.8 µM) | < 5 | 32 (≈ 84.8 µM) | 128 (≈ 339 µM) | 1 |  |  | 
COc1ccc(-c2ccc(/C=N/Nc3nc(C)c(/C(C)=N/NC(=N)N)s3)cc2)cc1 | >1 | 32 (≈ 75.9 µM) | < 5 | 128 (≈ 304 µM) | 32 (≈ 75.9 µM) | >1 | 1 |  | 
C/C(=N\NC(=N)N)c1sc(N/N=C/c2ccc(O)cc2)nc1C | 2 | 128 (≈ 386 µM) | < 5 | 64 (≈ 193 µM) | 32 (≈ 96.6 µM) | 1 | >1 |  | 
C/C(=N\NC(=N)N)c1sc(N/N=C/c2cc(F)ccc2F)nc1C | 1 | 8 (≈ 22.8 µM) | < 5 | 16 (≈ 45.5 µM) | 8 (≈ 22.8 µM) | 1 |  | 8 | 
C/C(=N\NC(=N)N)c1sc(N/N=C/c2ccc(-c3ccc(F)cc3)cc2)nc1C | 1 | 4 (≈ 9.77 µM) | < 5 | 16 (≈ 39.1 µM) | 4 (≈ 9.77 µM) | 4 |  | 16 | 
C/C(=N\NC(=N)N)c1sc(N/N=C/c2cc(O)cc(O)c2)nc1C | 1 | 64 (≈ 184 µM) | < 5 | 32 (≈ 92.1 µM) | 32 (≈ 92.1 µM) | 1 |  |  | 
C/C(=N\NC(=N)N)c1sc(N/N=C/c2cccc(F)c2F)nc1C | 2 | 16 (≈ 45.5 µM) | < 5 | 64 (≈ 182 µM) | 16 (≈ 45.5 µM) | 2 | 1 |  | 
C/C(=N\NC(=N)N)c1sc(N/N=C/c2cccc(O)c2)nc1C | 2 | 32 (≈ 96.6 µM) | < 5 | 32 (≈ 96.6 µM) | 8 (≈ 24.1 µM) | 1 | 1 |  | 
C/C(=N\NC(=N)N)c1sc(N/N=C/c2ccc(N3CCCC3)cc2)nc1C | 1 | 32 (≈ 83.2 µM) | < 5 | 32 (≈ 83.2 µM) | 32 (≈ 83.2 µM) | 4 |  |  | 
C/C(=N\NC(=N)N)c1sc(N/N=C/c2ccc(-c3cccs3)s2)nc1C | 2 | 8 (≈ 19.8 µM) | 3.3 | 8 (≈ 19.8 µM) | 2 (≈ 4.96 µM) | 1 | 1 | 8 | Activity [11]: Dose-Dependent Effect; Activity [12]: 100%; hemolysis at 3 h, 4 x MIC [13]: 2.1%; IC50 [14]: 145 µM; inhibition [15]: Dose-Dependent Effect; inhibition [16]: Dose-Dependent Effect; Activity [17]: 100%; Activity [18]: 70%; hemolysis at 3 h, 6 x MIC [19]: 1.7%; inhibition (INH) [20]: 44%; fold change (FC) [10]: 2; hemolysis at 3 h, 8 x MIC [21]: 1.3%; hemolysis at 3 h, 2 x MIC [22]: 2.6%; inhibition (INH) [23]: 59%
C/C(=N\NC(=N)N)c1sc(N/N=C/c2ccc(-c3ccc(C(F)(F)F)cc3)cc2)nc1C | 1 | 8 (≈ 17.4 µM) | < 5 | 8 (≈ 17.4 µM) | 16 (≈ 34.8 µM) | 1 |  | 8 | 
